Reference: paper PMC7436059, “Synthesis, Characterization, Photoluminescence, Molecular Docking and Bioactivity of Zinc (II) Compounds Based on Different Substituents” (Molecules, 2020)

Key:
[1] = system: human hepatocellular carcinoma cell line (Bel-7402); assay: CCK-8 antiproliferative assay, Bel-7402; type: cell-based; details: Bel-7042, CCK-8, 72 h incubation
From the text: (§1) The in vitro antiproliferative properties of complexes 1–6 against Eca-109, A549 and Bel-7402 tumor lines were examined by employing the CCK-8 assay with cisplatin as a positive control. […] It is interesting that the different cells respond distinctively to these complexes. The complexes display remarkable cytotoxicity against Eca-109 in comparison to A549 and Bel-7402. […] Compared with that of zinc chloride complexes, the antiproliferative activity of these complexes is stronger. This activity of the bromide complexes follows the order of 1 > 3 > 5 and that of the iodide complexes is 2 > 4 > 6. […] It is worth mentioning that, among these compounds, the order of the activity is consistent with the electronegativity values (methylsulfonyl (−2.96) < methoxy (−2.86) < methyl (−2.28) of the substituents.
(§2) In this assay, human esophageal cancer cell line (Eca-109), human lung cancer cell line (A549), human hepatocellular carcinoma cell line (Bel-7402) and mouse monocyte macrophage (RAW264.7) were used to evaluate the antiproliferative activities or cytotoxicity in vitro by CCK-8 assay for determining cell viability with cisplatin as the positive control. All the cells are purchased from the American Type Culture Collection (Manassas, VA, USA). The cells were cultured in 100 µL complete DMEM growth media containing 10% FBS and 1% PS. First, 3000 cells were added to 96-well plates and were cultured overnight in a humidified atmosphere at 37 °C with 5% CO2. Then, complexes 1–6 and cisplatin were diluted with complete DMEM growth media to obtain the working concentration, which was added to the tissue culture plate and incubated for 72 h. The CCK-8 solution was added to each well. After 3 h incubation, the absorbance of each well at 490 nm was measured using an enzyme labeling instrument (Tecan, Grödig, Salzburg, Austrla). Cell morphology was measured and imaged by an inverted microscope (Nikon eclipses TS100, Tokyo, Japan) and a Nikon digital camera (Tokyo, Japan). The 50% inhibitive concentration (IC50) was calculated by Graph Pad Prism 5.0 (San Diego, CA, USA).

[2] = system: human esophageal cancer cell line (Eca-109); assay: CCK-8 antiproliferative assay, Eca-109; type: cell-based; details: Eca-109, CCK-8, 72 h incubation
From the text: as §1, §2

BSA = biological target: T1, BSA (Bos taurus, UniProt P02769); assay: BSA fluorescence quenching titration (Stern-Volmer, Scatchard); type: binding, bovine; details: 1.6 μM BSA, Tris-HCl buffer; for Ksv (Stern-Volmer quenching constant): excitation 280 nm; for n (binding site number): Scatchard equation; for Kq (quenching rate constant): τ0 = 10^−8 s
T1 construct: purchased Asbio
T1 sequence (P02769 25-607): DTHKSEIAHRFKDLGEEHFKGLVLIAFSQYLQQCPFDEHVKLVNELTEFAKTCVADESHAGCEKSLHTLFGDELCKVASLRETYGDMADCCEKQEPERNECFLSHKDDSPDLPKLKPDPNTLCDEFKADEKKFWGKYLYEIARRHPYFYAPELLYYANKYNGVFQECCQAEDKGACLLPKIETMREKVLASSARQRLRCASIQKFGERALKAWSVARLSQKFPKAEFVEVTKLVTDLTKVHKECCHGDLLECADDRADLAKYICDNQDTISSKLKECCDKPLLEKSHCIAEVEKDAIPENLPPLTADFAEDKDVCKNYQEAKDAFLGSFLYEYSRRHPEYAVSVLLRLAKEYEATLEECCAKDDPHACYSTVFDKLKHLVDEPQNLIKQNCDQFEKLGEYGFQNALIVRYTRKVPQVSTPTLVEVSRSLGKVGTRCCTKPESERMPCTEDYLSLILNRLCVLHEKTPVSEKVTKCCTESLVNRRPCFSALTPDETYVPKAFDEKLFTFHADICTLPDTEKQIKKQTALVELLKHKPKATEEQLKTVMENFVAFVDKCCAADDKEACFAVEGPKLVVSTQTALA
From the text: The structure and transmission characteristics of BSA are similar to HSA [36]. BSA was used instead of HSA for drug delivery due to its ease to purify and stability. The binding of metal complexes to proteins was studied by fluorescence spectrum titration. Endogenous fluorescence of BSA comes from residues as tryptophan (Trp), tyrosine (Tyr) and phenylalanine (Phe), and conformational changes of BSA-binding metal complexes are obtained by observing the fluorescence of Trp residues at 350 nm. […] The same phenomenon occurs for the other compounds (shown in Figure S22, Supplementary Materials). […] This appearance may be due to a resonant energy transfer. […] The Stern–Volmer equation [37] (Equation (1)) was used to study the quenching mechanism of BSA and the complexes:I0/I = 1 + Kqτ0[Q] = 1 + Ksv[Q](1) where the fluorescence intensity of the protein is expressed by I0 and I in absence and in presence of quencher, respectively; Ksv is the Stern–Volmer quenching rate constant; Kq is the quenching rate constant; and τ0 and [Q] represent the lifetime of fluorescent molecule in absence of quencher (valued 10^−8 s) and quencher concentration, respectively. The maximum causing a value of dynamic quenching in biopolymers is 2 × 10^10 M^−1 S^−1 [23].
Calculation of the binding constants (Kb) was achieved according to the Scatchard equation [38] (Equation (2)):log [(I0 − I)/I] = logKb + nlog[Q](2) where Kb and n represent the binding constant and the binding site number, respectively. The binding constants Kb and the binding site number were obtained from the intercept and slope of the double logarithm regression plot between log [(I0 − I)/I] and log [Q]. The binding constant (>104 L mol^−1) was obtained under the condition of high binding affinity. […] It can be seen in Figure 7 that the absorption spectra of the complexes partially overlap with the […] spectrum of BSA.
Bovine serum albumin (BSA) was dissolved in a Tris-HCl buffer (pH = 7.4) solution to prepare a 1.6 × 10^−6 M BSA solution. The protein concentration was measured by spectrophotometry at 280 nm with the extinction coefficient of 44,300 M^−1 cm^−1. Stock solutions of complexes 1–6 (1 × 10^−2 M) were prepared in DMSO. The emission spectrum (300–600 nm) of BSA was monitored at the excitation wavelength of 280 nm.

[3] = system: human lung cancer cell line (A549); assay: CCK-8 antiproliferative assay, A549; type: cell-based; details: A549, CCK-8, 72 h incubation
From the text: as §1, §2

Row | Structure (SMILES) | IC50 [1] | IC50 [2] | Ksv (Stern-Volmer quenching constant) (BSA) | n (binding site number) (BSA) | Kq (quenching rate constant) (BSA) | IC50 [3]
1 | CS(=O)(=O)c1ccc(-c2cc(-c3ccccn3)nc(-c3ccccn3)c2)cc1.[Br][Zn][Br] [Compound 1, [ZnBr2L^1]] | 358 nM | 79 nM | 176000 M⁻¹ | 0.72 | 1.76e+13 M⁻¹ s⁻¹ | 
2 | CS(=O)(=O)c1ccc(-c2cc(-c3ccccn3)nc(-c3ccccn3)c2)cc1.[I][Zn][I] [Compound 2, [ZnI2L^1]] | 331 nM | 66 nM | 176000 M⁻¹ | 0.83 | 1.76e+13 M⁻¹ s⁻¹ | 290 nM
3 | COc1ccc(-c2cc(-c3ccccn3)nc(-c3ccccn3)c2)cc1.[Br][Zn][Br] [Compound 3, [ZnBr2L^2]] | 414 nM | 169 nM | 115000 M⁻¹ | 1.07 | 1.15e+13 M⁻¹ s⁻¹ | 482 nM
4 | COc1ccc(-c2cc(-c3ccccn3)nc(-c3ccccn3)c2)cc1.[I][Zn][I] [Compound 4, [ZnI2L^2]] | 397 nM | 75 nM | 163000 M⁻¹ | 1.08 | 1.63e+13 M⁻¹ s⁻¹ | 307 nM
5 | Cc1ccc(-c2cc(-c3ccccn3)nc(-c3ccccn3)c2)cc1.[Br][Zn][Br] [Compound 5, [ZnBr2L^3]] | 616 nM | 197 nM | 46300 M⁻¹ | 0.87 | 4.63e+12 M⁻¹ s⁻¹ | 748 nM
6 | Cc1ccc(-c2cc(-c3ccccn3)nc(-c3ccccn3)c2)cc1.[I][Zn][I] [Compound 6, [ZnI2L^3]] |  | 146 nM | 76700 M⁻¹ | 0.89 | 7.67e+12 M⁻¹ s⁻¹ | 945 nM
7 | N.N.[Cl][Pt][Cl] [cisplatin, reference compound] | 3090 nM | 5460 nM |  |  |  | 12000 nM
